# Reference: patent US4769447A, “Gamma-Glutamyl-4-azoanilides” (Boehringer Mannheim GmbH, priority 1986, dated 1988)
# Where a name gives a salt, the structure may show the parent alone.
# Columns and labels:
# [1] = routine use; cited from earlier work
# γ-GT [2] = experiment: Determination of the activity of γ-GT at 25° and 37° C. with S1 and L-Glupa C in human serum pools and control serum; format: biochemical; conditions: control serum PPU 516
# γ-GT [3] = target: T1, γ-GT (Homo sapiens, UniProt P19440); experiment: as above; format: biochemical
# T1 construct: in three mixtures of human sera; from tissue; host or cells: human serum (three pools of different activity); also a control serum of unstated origin
# T1 sequence (P19440 1-380 limits assumed): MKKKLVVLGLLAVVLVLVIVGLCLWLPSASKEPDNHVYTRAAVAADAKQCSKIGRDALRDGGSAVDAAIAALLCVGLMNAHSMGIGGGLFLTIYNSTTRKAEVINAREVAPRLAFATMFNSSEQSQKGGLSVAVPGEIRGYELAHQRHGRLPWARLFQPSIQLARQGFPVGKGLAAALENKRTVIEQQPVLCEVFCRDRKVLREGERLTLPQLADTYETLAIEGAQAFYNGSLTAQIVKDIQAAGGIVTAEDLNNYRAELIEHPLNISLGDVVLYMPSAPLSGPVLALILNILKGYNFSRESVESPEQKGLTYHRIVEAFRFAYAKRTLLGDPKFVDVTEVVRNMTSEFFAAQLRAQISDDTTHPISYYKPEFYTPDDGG
# T1 sequence (P19440 381-569 limits assumed): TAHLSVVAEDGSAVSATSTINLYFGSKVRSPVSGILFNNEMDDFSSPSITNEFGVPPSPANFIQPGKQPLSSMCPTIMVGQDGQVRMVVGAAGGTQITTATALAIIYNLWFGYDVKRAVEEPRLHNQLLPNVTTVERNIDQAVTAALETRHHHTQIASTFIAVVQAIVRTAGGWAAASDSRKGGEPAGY
# [4] = Absorption maxima (λmax., Δλmax.) and extinction coefficient of substrates and liberated coloured materials; format: physicochemical; conditions: for Δλmax. = λmax. (coloured material) - λmax. (substrate): difference of the absorption maxima; for λmax. (coloured material): coloured material liberated from the substrate
# Excerpt: Thus, for example, the difference of the absorption maxima of the known substrate γ-glutamyl-3-carboxy-4-nitroanilide (λmax. 317 nm) and of the coloured material obtained therefrom, i.e. 3-carboxy-4-nitroaniline(λmax. 380 nm) is 63 nm. In contradistinction thereto, the compounds according to the present invention of general formula (I) display substantially greater differences between the absorption spectra of the substrate and of the coloured material liberated enzymatically therefrom. As a rule, this difference is from 80 to 110 nm.
# Δλmax. hereby means the difference between λmax. (coloured material)-λmax. (substrate).
# γ-GT [5] = experiment: Determination of the activity of γ-GT at 25° and 37° C. with S1 and L-Glupa C in human serum pools and control serum; format: biochemical; conditions: control serum PPU 516; 25° C.
# Protocol: (§1) 21.78 g. Glycylglycine were dissolved in about 900 ml. distilled water, the pH was adjusted to 7.9 with 2N aqueous sodium hydroxide solution, the amount of substrate calculated for a concentration of 1 mmole/liter was dissolved therein and the solution made up to 1000 ml. with distilled water. End concentration in the test:
# (§2) 2.0 ml. of the reagent described in (a) was pipetted into a cuvette, tempered to 25° C. and mixed with 0.2 ml. of sample. The extinction increase per minute was measured at an apropriate wavelength.
# (§3) One international unit (U) is the enzyme activity which converts 1 μmole of substrate per minute at 25° C. The activity of the γ-glutamyl transferase in U/liter in the sample is calculated according to the following equation: [formula] wherein ΔE/min is the extinction increase at an appropriate wavelength per minute, V is the batch volume in ml., v is the sample volume in ml., ε is the extinction coefficient in cm^2 μmol^-1 and d is the layer thickness of the cuvette in cm.
# (§4) The substrates used were L-Glupa C and S1.
# γ-GT [6] = target: T1, γ-GT; experiment: as above; format: biochemical; conditions: 25° C.
# Protocol: as §1, §2, §3, §4
# [7] = target: T2, γ-glutamyl transferase (γ-GT) (Homo sapiens, UniProt P19440); experiment: Determination of the activity of γ-glutamyl transferase in a control serum at 25° C. with different substrates; format: biochemical; conditions: for extinction coefficient: at the measurement wavelength: 546 nm (S1, S8, S9), 578 nm (S5), 405 nm (L-Glupa C); for γ-GT activity found in control serum (U/liter at 25° C.): same control serum, substrate 1 mmole/liter, glycylglycine 150 mmole/liter, pH 7.9
# T2 construct: host or cells: control serum
# T2 sequence (P19440 381-569 limits assumed): as above
# T2 sequence (P19440 1-380 limits assumed): as the sequence (P19440 1-380 limits assumed) above
# Protocol: as §1, §2, §3
Compound,Δλmax. = λmax. (coloured material) - λmax. (substrate) [4],λmax. (substrate) [4],extinction coefficient [7],γ-GT activity found in control serum (U/liter at 25° C.) [7],other results
NC(CCC(=O)Nc1ccc([N+](=O)[O-])cc1)C(=O)O (centres unmarked) [γ-glutamyl-p-nitroanilide],–,–,–,–,solubility (known substrate) [1]: poor solubility; stability (known substrate) [1]: instability
"N.N.N#Cc1cc([N+](=O)[O-])ccc1N=Nc1ccc(NC(=O)CCC(N)C(=O)O)cc1CCC(=O)O (centres unmarked) [S1, 2-Amino-5-[[4-(2-cyano-4-nitrophenyl)-azo-3-(2-carboxyethyl)-phenyl]-amino]-5-oxopentanoic acid diammonium salt]",94 nm,394 nm,7.8 cm^2 μmol^-1,144 U/liter,"γ-GT activity, control serum PPU 516 (γ-GT [2]): 268 U/l.; γ-GT activity, human serum pool 1 (γ-GT [3]): 96 U/l.; γ-GT activity, human serum pool 2 (γ-GT [3]): 176 U/l.; γ-GT activity, human serum pool 3 (γ-GT [3]): 490 U/l.; γ-GT activity, control serum PPU 516 (γ-GT [5]): 134 U/l.; γ-GT activity, human serum pool 1 (γ-GT [6]): 42 U/l.; γ-GT activity, human serum pool 2 (γ-GT [6]): 76 U/l.; γ-GT activity, human serum pool 3 (γ-GT [6]): 220 U/l."
"CCCCSc1nnc(N=Nc2ccc(NC(=O)CCC(N)C(=O)O)cc2OCC(=O)O)s1 (centres unmarked) [S12, 2-Amino-5-[[4-(2-butylthio-1,3,4-thiadiazol-5-yl)-3-carboxymethoxyazophenyl]-amino]-5-oxopentanoic acid diammonium salt]",–,424 nm,–,–,–
"C[n+]1ccsc1N=Nc1ccc(NC(=O)CCC(N)C(=O)[O-])cc1CCC(=O)O.N (centres unmarked) [S10, 2-Amino-5-[[3-(2-carboxylatoethyl)-4-(3-methylthiazolium-2-yl)-azophenyl]-amino]-5-oxopentanoic acid ammonium salt]",–,402 nm,–,–,λmax. (coloured material) [4]: 486 nm; ε (coloured material) ([4]; printed after λmax. (coloured material)=486 nm): 15.5 cm^2 μmol^-1
"N[C@@H](CCC(=O)Nc1ccc([N+](=O)[O-])c(C(=O)O)c1)C(=O)O [L-Glupa C, L-γ-glutamyl-3-carboxy-4-nitroanilide, reference compound]",63 nm,317 nm,9.5 cm^2 μmol^-1,128 U/liter,"γ-GT activity, control serum PPU 516 (γ-GT [2]): 211 U/l.; γ-GT activity, human serum pool 1 (γ-GT [3]): 57 U/l.; γ-GT activity, human serum pool 2 (γ-GT [3]): 106 U/l.; γ-GT activity, human serum pool 3 (γ-GT [3]): 323 U/l.; γ-GT activity, control serum PPU 516 (γ-GT [5]): 139 U/l.; γ-GT activity, human serum pool 1 (γ-GT [6]): 35 U/l.; γ-GT activity, human serum pool 2 (γ-GT [6]): 63 U/l.; γ-GT activity, human serum pool 3 (γ-GT [6]): 190 U/l."
"Cc1c(C#N)sc(N=Nc2ccc(NC(=O)CCC(N)C(=O)O)cc2CCC(=O)O)c1C#N.N.N (centres unmarked) [S5, 2-Amino-5-[[3-(2-carboxyethyl)-4-(2,4-dicyano-3-methyl-5-thienyl)-azophenyl]-amino]-5-oxopentanoic acid diammonium salt]",106 nm,424 nm,8.9 cm^2 μmol^-1,77 U/liter,–
"Cc1c(C#N)sc(N=Nc2ccc(NC(=O)CCC(N)C(=O)O)cc2OCC(=O)O)c1C#N.N.N (centres unmarked) [S6, 2-Amino-5-[[3-carboxymethoxy-4-(2,4-dicyano-3-methyl-5-thienyl)-azophenyl]-amino]-5-oxopentanoic acid diammonium salt]",–,448 nm,–,–,–
"NC(CCC(=O)Nc1ccc(N=Nc2ccc([N+](=O)[O-])cc2)c(C(=O)O)c1)C(=O)O (centres unmarked) [S3, 2-amino-5-[(3-carboxyl-4-(4-nitrophenyl)-azophenyl]-amino]-5-oxopentnoic acid diammonium salt]",–,314 nm,–,–,–
2-Amino-5-[[4-(2-cyano-4-nitrophenyl)-azo-3-(2-carboxyethoxy)-phenyl]-amino]-5-oxopentanoic acid diammonium salt [S2],–,414 nm,–,–,–
"Cc1cc(NC(=O)CCC(N)C(=O)O)ccc1N=Nc1nc(C)c(C(=O)O)s1 (centres unmarked) [S7, 2-Amino-5-[[4-(5-carboxy-4-methyl-2-thiazolyl)-3-methylazophenyl]-amino]-5-oxopentanoic acid diammonium salt]",–,412 nm,–,–,–
"Nc1ccc([N+](=O)[O-])c(C(=O)O)c1 [3-carboxy-4-nitroaniline, reference compound]",–,–,–,–,λmax. (coloured material) [4]: 380 nm
"N.N.NC(CCC(=O)Nc1ccc(N=Nc2cc(Cl)c([N+](=O)[O-])cc2Cl)c(OCC(=O)O)c1)C(=O)O (centres unmarked) [S4, 2-Amino-5-[[4-(2,5-dichloro-4-nitrophenyl)-azo-3-(carboxymethoxy)-phenyl]-amino]-5-oxopentanoic acid diammonium salt]",–,402 nm,–,–,–
"CCOc1ccc2nc(N=Nc3ccc(NC(=O)CCC(N)C(=O)O)cc3OCC(=O)O)sc2c1.N.N (centres unmarked) [S13, 2-Amino-5-[[3-carboxymethoxy-4-(6-ethoxy-2-benzothiazolyl)-azophenyl]-amino]-5-oxopentanoic acid diammonium salt]",–,449 nm,–,–,–
"N.N.NC(CCC(=O)Nc1ccc(N=Nc2nccs2)c(CCC(=O)O)c1)C(=O)O (centres unmarked) [S9, 2-Amino-5-[[3-(2-carboxyethyl)-4-(2-thiazolyl)azophenyl]amino]-5-oxopentanoic acid diammonium salt]",–,394 nm,2.8 cm^2 μmol^-1,160 U/liter,–
"Cc1nc(N=Nc2ccc(NC(=O)CCC(N)C(=O)O)cc2CCC(=O)O)sc1C#N.N.N (centres unmarked) [S8, 2-Amino-5-[[3-(2-carboxyethyl)-4-(5-cyano-4-methyl-2-thiazolyl)-azophenyl]-amino]-5-oxopentanoic acid diammonium salt]",100 nm,420 nm,25.2 cm^2 μmol^-1,101 U/liter,–
"N.N.NC(CCC(=O)Nc1ccc(N=Nc2snc3cc([N+](=O)[O-])ccc23)c(OCC(=O)O)c1)C(=O)O (centres unmarked) [S11, 2-Amino-5-[[3-carboxymethoxy-4-(6-nitro-2,1-benzisothiazol-3-yl)-azophenyl]-amino]-5-oxopentanoic acid diammonium salt]",107 nm,453 nm,–,–,–
